Test results from paper PMC8785525 (Malaria Journal, 2022).
Converted amounts (≈) assume the structure as drawn. Where two headings read alike, the source gives them in different places. Each block holds one molecule with its values, some of them ahead of it.

Experiments:
P. falciparum 3D7 = test: In vitro anti-malarial activity, SYBR-Green I fluorescence assay, strain 3D7; format: cell-based; conditions: Plasmodium falciparum, 3D7, Erythrocyte, 72 h, read-out: Inhibition IC50 mean ± SD
Experimental: (§1) In the in vitro anti-malarial bioassay, strains of P. falciparum (chloroquine sensitive 3D7 and multidrug resistant Dd2) were kept in continuous culture in human erythrocytes in RPMI 1640 medium supplemented with 0.5% Albumax I/II and […] hypoxanthine according to the method previously described by Trager and Jensen. Synchronization of parasites was conducted using sorbitol treatment and parasitaemia was microscopically determined in Giemsa-stained smears.
(§2) In vitro anti-malarial activity assay was performed as previously described. Chloroquine and artemisinin were used as standard anti-malarial drugs, and equivalent free DQ used as a control and dissolved in dimethylsulfoxide (DMSO). Liposomes were diluted into a series of 10 µl different DQ concentrations for the in vitro assay. Each sample (10 µl) was mixed with 90 µl culture medium containing P. falciparum (0.5% parasitaemia and 2% haematocrit) and placed in 96-well microplates, which were incubated for 72 h with 5% CO2 at 37 °C. Lysis buffer (100 µl) containing 0.2 µl SYBR- Green I was then added to each well of the plate and incubated for additional 1.5 h at 37 °C. Fluorescence signal was detected at 488 nm (excitation) and 520 nm (emission) in a microplate reader (Synerfy H1, Bio Tek, USA). The intensity of fluorescence generated by the binding of SYBR-Green I to Plasmodium DNA is relative to the growth of parasites. IC50 values were derived from dose–response curves evaluated with software GraphPad.

P. falciparum Dd2 = test: In vitro anti-malarial activity, SYBR-Green I fluorescence assay, strain Dd2; format: cell-based; conditions: Plasmodium falciparum, DD2, Erythrocyte, 72 h, read-out: Inhibition IC50 mean ± SD
Experimental: as §1, §2

[1] = design: method as in PMID 21914160; conditions: cited from earlier work
Plasmodium parasites = system: Plasmodium parasites; design: method as in PMID 28491482; conditions: cited from earlier work
[2] = infected human red blood cells, DQ concentration for liposomes

SMILES: C[C@H]1[C@@H](O)O[C@@H]2O[C@@]3(C)CC[C@H]4[C@H](C)CC[C@@H]1[C@@]24OO3 [DHA, dihydro-artemisinin]
half-life ([1]; DHA formed from intravenous artesunate): 30 to 60 min

SMILES: C[C@H]1[C@H](OC(=O)CCC(=O)O)O[C@@H]2O[C@@]3(C)CC[C@H]4[C@H](C)CC[C@@H]1[C@@]24OO3 [artesunate]
half-life ([1]; intravenous artesunate, parent AS): less than 15 min

Now from value to molecule, other results behind:

IC50 (P. falciparum 3D7; [2]): 16.4 ± 5.8 nM
IC50 (P. falciparum Dd2; [2]): 18.5 ± 0.5 nM
SMILES: C[C@@H]1CC[C@H]2[C@@H](C)C(=O)O[C@@H]3O[C@@]4(C)CC[C@@H]1[C@]32OO4 [Artemisinin]

IC50 (P. falciparum 3D7): 23.75 ± 0.06 nM
IC50 (P. falciparum Dd2): 185 ± 16.2 nM
SMILES: CCN(CC)CCCC(C)Nc1ccnc2cc(Cl)ccc12 (stereo not drawn) [Chloroquine]

IC50 (P. falciparum 3D7; [2]): 1.63 ± 0.13 nM
IC50 (P. falciparum Dd2; [2]): 1.57 ± 0.49 nM
SMILES: CCCCCCCCCCOc1cc2c(O)c(C(=O)OCC)cnc2cc1OCC [DQ in DMSO, Decoquinate]
minimum inhibitory concentration (MIC) (Plasmodium parasites): 5.12 ng/mL (≈ 0.0123 µM)
